Results from patent US7544666B2, “NAP derivatives” (Industrial Technology Research Institute, priority 2005, dated 2009).

Key:
[1] = Stability in Hanks' balanced salt solution (HBSS); format: physicochemical; conditions: 37° C., relative to initial conc. in HBSS = 100.00
Outline: (§1)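 Compounds at 500 μM initial concentration were incubated 4 h at 37 °C in HBSS alone or on the apical side of Caco-2 monolayers (cultured 18–26 days, TEER over 350 Ω×cm^2). Apical and basolateral levels were quantified by reverse-phase HPLC at 210 nm against the initial concentration.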

[2] = test system: Caco-2 cell; assay: Stability in the Caco-2 cell system; format: in vitro ADME, human; conditions: 4-hour incubation in Caco-2 Transwell; relative to initial conc. = 100.00 (500 μM)
Outline: as §1

[3] = Pharmacokinetics after single subcutaneous dose in rats; format: in vivo; conditions: rat, 1 mg/kg subcutaneous
Protocol: A single dosage of NAP and the NAP derivative of BMEC-NAP0706 were subcutaneously administered to rats respectively, and blood samples were obtained at different time intervals. The blood samples were subjected to LC-MS/MS analysis to measure the concentration of NAP and the NAP derivative. A time-plasma concentration relationship was established and pharmacokinetic parameters were calculated. The procedures are described below.
Long Evans rats with body weight between 220 to 240 g were obtained from the National Laboratory Animal Center, Taiwan and caged in the laboratory animal housing in the Industrial Technology Research Institute, Taiwan. The Breeding procedure follows the “Guide for the Care and Use of Laboratory Animals” established by the Chinese Society of Laboratory Animal Sciences. The rats were kept on an alternating 12-hour light and 12-hour dark schedule with sufficient feed and water until they reached the body weight between 280 to 300 g.
Each rat was weighed before the pharmacokinetic examination to estimate its own dosage. The tested drug dissolved in PBS was formulated to achieve the amount of one dosage between 0.28 to 0.32 mL. Each rat was subcutaneously administered with 1 mg/kg of the tested drug. 0.3 mL of blood samples were collected from the saphenous vein in medial thigh of the rat before and 0.25-, 0.5-, 0.75-, 1-, 2-, 4-, 24-hour after administration. Whole blood was centrifuged under 3500 rpm for 10 min and supernatant (serum) was moved to a clean 1.5 mL eppendorf and stored at −80° C.
Sample pretreatment was as follows: The frozen serum was thawed in an ice bath. One hundred μL of the serum was moved to a clean 1.5 mL eppendorf and 10 μL of internal standard material was added. The mixture was added with 200 μL ACN and mixed again. The sample was centrifuged under 14000 rpm at 4° C. for 10 min, and the supernatant was moved to the other clean eppendorf and dried in a vacuum system at 60° C. for 30 min. The dried sample was dissolved in 900 μL ddH2O. The sample was added to a solid phase extraction column previously activated with methanol and ddH2O. After the sample passed through, the extraction column was washed with ddH2O alone and then ddH2O containing 5% ACN and 0.1% TFA. The sample was dissolved from the extraction column with ACN containing 0.1% TFA and dried under a vacuum system at 60° C. for 1 hour. The dried sample was redissolved with 100 μL of ddH2O containing 50% ACN. The sample was analyzed with HPLC-MS/MS system.
The sample analysis was as described below. 20 μL of the sample was poured into the HPLC-MS/MS system. The solvent system was applied in gradient partitioning: 90% A (H2O/ACN=98/2, 0.1% F.A.) and 10% B (H2O/ACN=20/80, 0.1% F.A.) at 0-3 min; 10% A and 90% B at 3-6.5 min; 90% A and 10% B again at 6.5-15 min. The flow rate was 0.2 mL/min. The column was ZORBAX C18, 5 μm, 2.1×50 mm (Agilent) and the detector was ABI 4000 Q Trap. Each sample was analyzed for 15 min. The results were compared with the standard calibration curve to estimate the concentration of each sample. All data was statistically analyzed with Excel or WinNonlin.

CC[C@H](C)[C@H](NC(=O)[C@H](CO)NC(=O)[C@@H](NC(=O)[C@@H]1CCCN1C(=O)[C@H](C)NC(=O)[C@@H](N)CC(N)=O)C(C)C)C(=O)N1CCC[C@H]1C(=O)N[C@@H](CCC(N)=O)C(=O)O [BMEC-NAP, H-NAPVSIPQ-OH, reference compound]
Conc. after 4-hour in HBSS [1]: 99.21
Conc. after 4-hour in Caco-2 cells [2]: 42.49
AUC ([3]; in vivo, sc): 55.8 ng·h/mL
Cmax ([3]; in vivo, sc): 55.5 ng/mL
Tmax ([3]; in vivo, sc): 15 min
half-life ([3]; in vivo, sc, read-out: T½ (converted)): 51 min
TNAP-max [3]: 0.25 h
time required to reach the highest concentration [3]: 0.25 h
